Assay results taken from the NIST ThermoML archive (doi:10.1021/je9006579).

Assays:
[1] = molar heat capacity at constant pressure; xn = mol fraction of the nth substance listed; details: 101 kPa, Liquid, Cooling curve
[2] = molar heat capacity at constant pressure; details: 101.33 kPa, Liquid, Cooling curve

CC(=O)OC(C)=O [ethanoic anhydride] + CC(=O)O
molar heat capacity at constant pressure [J/K/mol], [1]
Details | x1 = 0.0613 | x1 = 0.1282 | x1 = 0.2013 | x1 = 0.2817 | x1 = 0.3704 | x1 = 0.4687 | x1 = 0.5785 | x1 = 0.7017 | x1 = 0.8411 | x1 = 1
308.15 K | 139.18 | 144.25 | 149.4 | 154.9 | 160.85 | 167.3 | 174.47 | 182.33 | 190.56 | 199.93
313.15 K | 139.82 | 144.91 | 150.09 | 155.59 | 161.58 | 168.08 | 175.28 | 183.12 | 191.49 | 200.73
318.15 K | 140.51 | 145.46 | 150.76 | 156.27 | 162.26 | 168.76 | 176.03 | 183.96 | 192.33 | 201.58
323.15 K | 141.12 | 145.9 | 151.31 | 156.85 | 162.89 | 169.45 | 176.76 | 184.78 | 193.23 | 202.53
328.15 K | 141.75 | 146.52 | 152.03 | 157.59 | 163.68 | 170.33 | 177.68 | 185.79 | 194.35 | 203.67
333.15 K | 142.23 | 147.13 | 152.51 | 158.1 | 164.24 | 170.89 | 178.31 | 186.44 | 195 | 204.34

CCCCCCC [heptane]
[2]
Details | molar heat capacity at constant pressure [J/K/mol]
313.15 K | 230.37
333.15 K | 240.03
